In data set [1] the target is ^3 H-GABA binding to rat brain membranes. Kind of data set: ^3 H-GABA binding to rat brain membranes. The following applies: 10 nM ^3 H-GABA, on ice 5 min.
Method: 0.32 M sucrose (made fresh every day)
0.05 N Tris-citrate buffer (pH ~6.8)
^3 H-GABA=aminobutyric acid, γ-2,3-^3 H(N) approx.
35 Ci/mmol, from New England Nuclear
(diluted daily to 1 μM in water)
A. Preparation of membranes
Rats are killed by a blow to their head, exsanguinated and their brains removed and cooled in icecold saline. After rinsing and weighing two brains are pooled and homogenized in 40 ml of icecold 0.32 M sucrose using a motor-driven homogenizer with teflon pestle (6 strokes up and down, slow speed rotation).
The samples are centrifuged for 10 min. at 900 g, and thereafter the supernatants are centrifuged for 20 min. at 17,000 g (4° C.). […]
Incubation tubes in duplicate receive on ice 780 μl of water, 200 μl of drug dissolved in water, 20 μl of 1 μM ^3 H-GABA (final concentration of ^3 H-GABA in tubes=10 nM) and 1000 μl of the membrane suspension. […] Ten ml of Instagel or Lumagel containing 10 ml of acetic acid per 1 are added, and the radioactivity are determined by liquid scintillation counting. The unspecific binding of ^3 H-GABA is determined by incubating the samples with 1 mM of GABA. […]
The means of controls and 1 mM GABA samples are calculated. […] The IC50-values are determined as the concentrations, at which the binding is 50 percent of the total binding minus the unspecific binding.
Data set [2] concerns isoniazide-induced seizures in mice. Kind of data set: Isoniazide antagonism (isoniazide 300 mg/kg s.c. induced convulsions). The format is in vivo, mouse. Details: unit: mg/kg. To be noted: i.p. test compound, table does not say whether MED or ED50. The procedure: Isoniazide 300 mg/kg s.c.
Five mice are used for each dose level.
Immediately after administration of test substance, isoniazide 300 mg/kg is injected s.c. This dose of isoniazide induces intermittent tonic clonic seizures within 60 minutes.
The calculations are performed as an "on line procedure" on the EDP-terminal. […] ED50 is determined as the dose in mg/kg which increases the time 50%.

The next data set deals with mouse pain threshold. Kind of data set: Mouse grid shock (analgesic effect, pain threshold). The format is in vivo. To be noted: male mice, + not defined. The procedure: The mouse grid consists of a perspex cage with wire grid bottom and a perspex lid, on which is placed a microphone sensitive to the frequency of a mouse-squeak. A stimulator with motordriven potentiometer applies a sequence of square wave impulses of continuously increasing milliamperage to the grid. Frequency of impulses 20 cycles/sec., duration 5 msec. Milliamperage is recorded on a digital amperemeter connected to the stimulator. Activation of the microphone by a mouse-squeak cuts off the current and the final milliamperage appear on the meter.
Five mice are used for each dose level. Each mouse serves as its own control.
Prior to the administration of test substance the animals are placed on the grid one at a time and the pain threshold is determined by increasing the current intensity until the mouse squeaks. The pain threshold may be read on the milliamperemeter.
Fifteen minutes and 30 minutes after administration of test substance the mice are tested again and the pain thresholds recorded.
Analgesic effect is present when the pain threshold is increased over the pre-dosing value (control value). The results are stated as % increase in pain threshold calculated on the basis of the control value. The registration can also be done as an on-line procedure. […]

For data set [3] the following is noted: THIP, European Patent Application No. 78 100 191.2; cited from earlier work.
For data set [4] the following is noted: THIP, prior art; cited from earlier work.

Take `CC(=O)n1oc2c(c1=O)CCNC2` [Example 3, 2-Acetyl-4,5,6,7-tetrahydroisoxazolo[5,4-c]-pyridine-3-one]: the IC50 in data set [1] was above 100 µM. Further, the Isoniazide antagonism result in data set [2] is reported as “weak effect”. Moreover, the Mouse grid shock result in the data set on mouse pain threshold is on record as “no effect”.
For `NC(=O)n1oc2c(c1=O)CCNC2` [Example 5, 2-Carbamoyl-4,5,6,7-tetrahydroisoxazolo[5,4-c]-pyridine-3-one], in data set [2], the Isoniazide antagonism came out at 5.8.
On the same count and under the same terms, to `CNC(=O)n1oc2c(c1=O)CCNC2` [Example 6, 2-(N-methylcarbamoyl)-4,5,6,7-tetrahydroisoxazolo[5,4-c]pyridine-3-one] belongs 1.3; to `O=C(NC1CCCCC1)n1oc2c(c1=O)CCNC2` [Example 7, 2-(N-cyclohexylcarbamoyl)-4,5,6,7-tetrahydroisoxazolo[5,4-c]pyridine-3-one], 2.1.
Turning to `Oc1noc2c1CCNC2` [THIP, 4,5,6,7-tetrahydroisoxazolo[5,4-c]pyridine-3-ol], the GABA-related activity result in data set [3] is “having GABA-related activity”. Also, the Isoniazide antagonism in data set [2] was determined as 1.3. For the same molecule, in data set [4], the duration of action result is on record as “relatively shortacting” and the side effects result is recorded as “some side effects”.

The values above are taken from patent US4353910A, “Derivatives of 4,5,6,7-tetrahydroisoxazolo [5,4-c] pyridine-3-one, pharmaceutical compositions and methods of treatment” (priority 1981, dated 1982).
